Measurements from patent US20230355597A1, “COMPOUNDS, COMPOSITIONS, AND METHODS FOR THE TREATMENT AND PREVENTION OF AVIAN PATHOGENIC E. COLI (APEC)” (OHIO STATE INNOVATION FOUNDATION, priority 2018, published 2023).

How the values were obtained:
[1] = test system: AI-2 activity of APEC O109; assay: AI-2 bioluminescence indicator assay (V. harveyi BB170); settings: APEC O109, 100 µM
AI-2 activity of APEC O2 = assay: as above; settings: APEC O2, 100 µM
[2] = test system: AI-2 activity of APEC O78; assay: as above; settings: APEC O78, 100 µM
[3] = test system: AI-2 activity of APEC O115; assay: as above; settings: APEC O115, 100 µM
[4] = test system: AI-2 activity of APEC O18; assay: as above; settings: APEC O18, 100 µM
[5] = test system: AI-2 activity of APEC O35; assay: as above; settings: APEC O35, 100 µM
[6] = test system: QS and virulence associated genes of APEC O78; assay: qRT-PCR of QS-regulated and virulence factors genes; type: cell-based, avian pathogenic Escherichia coli (APEC); settings: 100 µM, 10 h
Protocol: Quantitative real-time reverse transcription PCR (qRT-PCR). […] APEC O78 was grown in the presence of 100 µM of each compound in a 96-well plate at 37° C. for 10 h. APEC O78 culture treated with 1 µL of 100% DMSO was used as […]. Total RNA was extracted from duplicate wells for each compound (200 µL) using a miRNeasy Mini Kit (Qiagen). RNA quality and quantity was determined by nanodrop 2000 C spectrophotometer (Thermo scientific). Traces of DNA was removed using Genomic DNA removal mix (Qiagen). Approximately, 5 µg of purified RNA was used to synthesize cDNA using the Qiagen RT^2 First Strand Kit (Qiagen). The qRT-PCR was performed using SensiMix™ SYBER® Hi-Rox qPCR Master Mix (Bioline) according to manufacturer instructions in a realplex^2 mastercycler (Eppendorf) with 55° C. annealing temperature. Gene-specific primers were designed using PrimerQuest Tool and obtained from integrated DNA technologies (IDT). The data were normalized to the house-keeping gene, glyceraldehyde-3-phosphate dehydrogenase (GAPDH). The relative fold change was calculated using the ΔΔCt method. Three independent experiments were conducted.

AI-2 activity of APEC O8 = assay: AI-2 bioluminescence indicator assay (V. harveyi BB170); settings: APEC O8, 100 µM
Caco-2 cells = assay: LDH assay of AI-2 inhibitors; settings: Caco-2, 100 µM, 24 h
[7] = test system: AI-2 activity of APEC O15; assay: AI-2 bioluminescence indicator assay (V. harveyi BB170); settings: APEC O15, 100 µM
AI-2 activity of APEC O1 = assay: as above; settings: APEC O1, 100 µM
Rif^r APEC O78 [8] = assay: Wax moth (Galleria mellonella) larva infection model (AI-2 inhibitors)
Rif^r APEC O78 [9] = assay: In vivo screening of quorum sensing inhibitors in APEC infected broiler chickens
APEC O2 in THP-1 cells = assay: Intracellular survival assay (AI-2 inhibitors); settings: O2, THP-1, 100 µM, 6 h
APEC O78 in HD-11 cells = assay: Intracellular survival assay (AI-2 inhibitors); type: cell-based, avian pathogenic Escherichia coli (APEC); settings: O78, HD-11, 100 µM, 6 h
Source text: Intracellular survival assay.

APEC O2 in HD-11 cells = assay: Intracellular survival assay (AI-2 inhibitors); settings: O2, HD-11, 100 µM, 6 h

Row | Structure (SMILES) | Inhibition % of AI-2 activity [1] [%] | Inhibition % of AI-2 activity (AI-2 activity of APEC O2) [%] | Inhibition % of AI-2 activity [2] [%] | Inhibition % of AI-2 activity [3] [%] | Inhibition % of AI-2 activity [4] [%] | Inhibition % of AI-2 activity [5] [%] | expression of cheW [6] | expression of csrA [6] | Inhibition % of AI-2 activity (AI-2 activity of APEC O8) [%] | toxicity (LDH) (Caco-2 cells) [%] | Inhibition % of AI-2 activity [7] [%] | Inhibition % of AI-2 activity (AI-2 activity of APEC O1) [%] | other results
1 | COC(=S)NN=Cc1cc(C)ccc1O [C4, methyl N′-{2-hydroxy-5-methylbenzylidene)hydrazonethiocarbonate] | 67 | 76 | 75 | 58 | 54 | 60 | down-regulated | down-regulated | 0 | 12 | 46 | 63 | expression of iucD [6]: down-regulated; expression of pfs [6]: up-regulated
2 | CCc1ccccc1Nc1nc(-c2c(C)nc3ccccn23)cs1 [C8, N-{2-ethyphenyl)-4-(2-methylimidazo[1,2-a]pyridin-3-yl)-1.3-thiazol-2-amine] | – | 94 | 98 | 44 | 54 | 57 | – | – | 18 | 2 | 25 | 41 | larval death (Rif^r APEC O78 [8]; 48 h post treatment): no larval death; clearance of APEC in live larvae (Rif^r APEC O78 [8]; 72 h): 100%; reduction in chicken mortality (Rif^r APEC O78 [9]; DMSO control mortality normalized to 100%): 50%; average lesion score reduction (Rif^r APEC O78 [9]; liver, heart, lung and airsac, vs DMSO): 1.0-2.0; reduction of bacterial load in internal organs (Rif^r APEC O78 [9]; liver, lung, heart, and kidney, vs DMSO control, 'up to'): 2.2-3.1 log CFU/g; Mortality rate (%) (Rif^r APEC O78 [9]; oral gavage once a day, day 4 to day 8, DMSO control 66.7%): 33.3%; Reduction in APEC lesions severity, Air-sacs (%) (Rif^r APEC O78 [9]; vs DMSO treated control): 66.7%; Reduction in APEC lesions severity, Heart (%) (Rif^r APEC O78 [9]; vs DMSO treated control): 75%; Reduction in APEC lesions severity, Liver (%) (Rif^r APEC O78 [9]; vs DMSO treated control): 75%; Reduction in APEC lesions severity, Lung (%) (Rif^r APEC O78 [9]; vs DMSO treated control): 83.3%; expression of fliP [6]: down-regulated
3 | Fc1ccc(CN2CCCN(Cc3nc(-c4ccc(C(F)(F)F)cc4)no3)CC2)cc1 [C9, 1-(4-flurobenzyl)-4-((3-[4-(trifluoromethyl)phenyl]-1,2,4-oxadiazol-5-yl]methyl)-1,4-diazapane] | 66 | 51 | 79 | 44 | 14 | 36 | down-regulated | down-regulated | 20 | – | 0 | 19 | clearance of intracellular APEC (APEC O2 in THP-1 cells): 100%; reduction of intracellular survival (APEC O2 in THP-1 cells; vs DMSO): 4 logs; clearance of intracellular APEC (APEC O78 in HD-11 cells): 100%; reduction of intracellular survival (APEC O78 in HD-11 cells; vs DMSO): 4 logs; expression of murD [6]: down-regulated; clearance of intracellular APEC (APEC O2 in HD-11 cells): 100%; reduction of intracellular survival (APEC O2 in HD-11 cells; vs DMSO): 3.3 logs
